Measured values published in patent US20230019236A1, “PROTEIN TYROSINE PHOSPHATASE INHIBITORS AND METHODS OF USE THEREOF” (Calico Life Sciences LLC, priority 2019, published 2023).

The compounds below were run against T1, His tagged PTPN2 (TC45) protein (Homo sapiens, UniProt P17706) (assay: Mobility Shift Assay used to determine potency of PTPN2 inhibitors). Conditions: Table 2; read-out: PTPN2 MSA IC50.
T1 construct: made in house
T1 sequence (P17706 with tags, fused parts or gaps isoform P17706-2): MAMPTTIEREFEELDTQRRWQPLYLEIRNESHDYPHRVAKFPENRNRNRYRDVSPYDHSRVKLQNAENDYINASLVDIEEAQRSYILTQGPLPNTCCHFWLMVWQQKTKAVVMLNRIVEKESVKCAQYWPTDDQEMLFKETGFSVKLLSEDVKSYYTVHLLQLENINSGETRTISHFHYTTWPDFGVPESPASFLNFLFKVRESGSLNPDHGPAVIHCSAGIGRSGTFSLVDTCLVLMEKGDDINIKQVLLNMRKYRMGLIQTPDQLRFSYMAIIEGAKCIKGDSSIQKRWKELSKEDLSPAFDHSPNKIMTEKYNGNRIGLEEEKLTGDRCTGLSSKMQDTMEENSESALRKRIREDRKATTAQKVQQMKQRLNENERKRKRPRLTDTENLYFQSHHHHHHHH
Assay type: biochemical
Experimental: Example 292: Mobility Shift Assay used to determine potency of PTPN2 inhibitors
Compound activity was determined using in house His tagged PTPN2 (TC45) protein (SEQ ID NO: 1) in an in vitro enzymatic reaction. The enzymatic assay used to determine activity was a mobility shift assay using a LabChip EZ Reader by Caliper Life Sciences. The enzymatic reaction was carried out in assay buffer (50 mM HEPES pH 7.5, 1 mM EGTA, 10 mM EDTA, 0.01% Tween® 20, and 2 mM DTT). The compounds were dispensed on a white 384 well ProxiPlate™ (PerkinElmer Catalog#6008289) plate using the Labcyte Echo at varying concentrations (12 point, 1:3 dilution). The enzyme (at 0.5 nM) was incubated with compound for 10 minutes at room temperature. Then the substrate (phosphorylated insulin receptor probe sequence: ((OG488)—{NH—CH2—CH2—O—CH2—CH2—O—CH2—CO)—T—R—D—I—(PY)—E—T—D—Y—Y—R—K—K—NH2) (SEQ ID NO: 2) was added at 2 μM to the plates and incubated for another 10 minutes at room temperature. Finally, a quench solution (water and 4-bromo-3-(2-oxo-2-propoxyethoxy)-5-(3-{[1-(phenylmethanesulfonyl)piperidin-4-yl]amino}phenyl)thiophene-2-carboxylic acid) was added to the plates, which were then run on the EZ Reader (excitation 488 nm, emission 530 nm) to measure % conversion (the amount of phosphorylated substrate which was de-phosphorylated by PTPN2). […] The % inhibition was then used to calculate the IC50 values.
Work on `C[C@@H](O)C[C@@H](O)COc1ccc2cc(O)c(N3CC(=O)NS3(=O)=O)c(F)c2c1` (racemic) [Compound 325, 5-(7-{[rac-(2R,4R)-2,4-dihydroxypentyl]oxy}-1-fluoro-3-hydroxynaphthalen-2-yl)-1λ^6,2,5-thiadiazolidine-1,1,3-trione] yielded an IC50 of 1 to 10 nM. `O=C1CN(c2c(O)cc3ccc(OCCNS(=O)(=O)C4CC4)cc3c2F)S(=O)(=O)N1` [Compound 127, N-(2-{[8-fluoro-6-hydroxy-7-(1,1,4-trioxo-1λ^6,2,5-thiadiazolidin-2-yl)naphthalen-2-yl]oxy}ethyl)cyclopropanesulfonamide] showed an IC50 of 1 to 10 nM. For `N#CCC1(COc2ccc3cc(O)c(N4CC(=O)NS4(=O)=O)c(F)c3c2)CC1` [Compound 130, [1-({[8-fluoro-6-hydroxy-7-(1,1,4-trioxo-1λ^6,2,5-thiadiazolidin-2-yl)naphthalen-2-yl]oxy}methyl)cyclopropyl]acetonitrile], the IC50 was 1 to 10 nM. With `N#CC1(COc2ccc3cc(O)c(N4CC(=O)NS4(=O)=O)c(F)c3c2)CC1` [Compound 199, 1-({[8-fluoro-6-hydroxy-7-(1,1,4-trioxo-1λ^6,2,5-thiadiazolidin-2-yl)naphthalen-2-yl]oxy}methyl)cyclopropane-1-carbonitrile] the IC50 was 1 to 10 nM. Compound `O=C1CN(c2c(O)cc3ccc(C4=CCN(CCC5CC5)C4)cc3c2F)S(=O)(=O)N1` [Compound 244, 5-{7-[1-(2-cyclopropylethyl)-2,5-dihydro-1H-pyrrol-3-yl]-1-fluoro-3-hydroxynaphthalen-2-yl}-1λ^6,2,5-thiadiazolidine-1,1,3-trione] has an IC50 of 10 to 100 nM. With `O=C1CN(c2c(O)cc3ccc(OCCCC(F)F)cc3c2F)S(=O)(=O)N1` [Compound 372, 5-[7-(4,4-difluorobutoxy)-1-fluoro-3-hydroxynaphthalen-2-yl]-1λ^6,2,5-thiadiazolidine-1,1,3-trione] the IC50 was under 1 nM. For `O=C1CN(c2c(O)cc3ccc(OCCC4COC4)cc3c2F)S(=O)(=O)N1` [Compound 373, 5-{1-fluoro-3-hydroxy-7-[2-(oxetan-3-yl)ethoxy]naphthalen-2-yl}-1λ^6,2,5-thiadiazolidine-1,1,3-trione], the IC50 was 1 to 10 nM. `O=C1CN(c2c(O)cc3ccc(OCCC4(CO)CCC4)cc3c2F)S(=O)(=O)N1` [Compound 374, 5-(1-fluoro-3-hydroxy-7-{2-[1-(hydroxymethyl)cyclobutyl]ethoxy}naphthalen-2-yl)-1λ^6,2,5-thiadiazolidine-1,1,3-trione] showed an IC50 of under 1 nM. In the case of `O=C1CN(c2c(O)cc3ccc(OCCCC(F)(F)CO)cc3c2F)S(=O)(=O)N1` [Compound 375, 5-{7-[(4,4-difluoro-5-hydroxypentyl)oxy]-1-fluoro-3-hydroxynaphthalen-2-yl}-1λ^6,2,5-thiadiazolidine-1,1,3-trione], the IC50 is reported as under 1 nM. For `NCC12CC(CCOc3ccc4cc(O)c(N5CC(=O)NS5(=O)=O)c(F)c4c3)(C1)C2` [Compound 376, 5-(7-{2-[3-(aminomethyl)bicyclo[11.1.1]pentan-1-yl]ethoxy}-1-fluoro-3-hydroxynaphthalen-2-yl)-1λ^6,2,5-thiadiazolidine-1,1,3-trione], the IC50 was 1 to 10 nM. `O=C1CN(c2c(O)cc3ccc(OCC45CC(CCO)(C4)C5)cc3c2F)S(=O)(=O)N1` [Compound 377, 5-(1-fluoro-3-hydroxy-7-{[3-(2-hydroxyethyl)bicyclo[1.1.1]pentan-1-yl]methoxy}naphthalen-2-yl)-1λ^6,2,5-thiadiazolidine-1,1,3-trione] showed an IC50 of 1 to 10 nM. `O=C1CN(c2c(O)cc3ccc(OCCC45CC(C4)C5)cc3c2F)S(=O)(=O)N1` [Compound 378, 5-{7-[2-(bicyclo[11.1.1]pentan-1-yl)ethoxy]-1-fluoro-3-hydroxynaphthalen-2-yl}-1λ^6,2,5-thiadiazolidine-1,1,3-trione] was tested, and the IC50 was under 1 nM. Compound `NCC1(CCOc2ccc3cc(O)c(N4CC(=O)NS4(=O)=O)c(F)c3c2)CCC1` [Compound 379, 5-(7-{2-[1-(aminomethyl)cyclobutyl]ethoxy}-1-fluoro-3-hydroxynaphthalen-2-yl)-1λ^6,2,5-thiadiazolidine-1,1,3-trione] has an IC50 of 1 to 10 nM. With `CC1(O)CN(CCOc2ccc3cc(O)c(N4CC(=O)NS4(=O)=O)c(F)c3c2)C1` [Compound 380, 5-{1-fluoro-3-hydroxy-7-[2-(3-hydroxy-3-methylazetidin-1-yl)ethoxy]naphthalen-2-yl}-1λ^6,2,5-thiadiazolidine-1,1,3-trione] the IC50 was 1 to 10 nM. `O=C1CN(c2c(O)cc3ccc(OCCN4CCC[C@H]4C(F)(F)F)cc3c2F)S(=O)(=O)N1` [Compound 381, 5-(1-fluoro-3-hydroxy-7-{2-[(2S)-2-(trifluoromethyl)pyrrolidin-1-yl]ethoxy}naphthalen-2-yl)-1λ^6,2,5-thiadiazolidine-1,1,3-trione] was tested, and the IC50 was 1 to 10 nM. `COCCN(C)CCOc1ccc2cc(O)c(N3CC(=O)NS3(=O)=O)c(F)c2c1` [Compound 382, 5-(1-fluoro-3-hydroxy-7-{2-[(2-methoxyethyl)(methyl)amino]ethoxy}naphthalen-2-yl)-1λ^6,2,5-thiadiazolidine-1,1,3-trione] gave an IC50 of 10 to 100 nM. `O=C1CN(c2c(O)cc3ccc(OCCN4CCC(F)(F)C4)cc3c2F)S(=O)(=O)N1` [Compound 383, 5-{7-[2-(3,3-difluoropyrrolidin-1-yl)ethoxy]-1-fluoro-3-hydroxynaphthalen-2-yl}-1λ^6,2,5-thiadiazolidine-1,1,3-trione] was tested, and the IC50 was 1 to 10 nM. `O=C1CN(c2c(O)cc3ccc(OCCN4Cc5ccccc5C4)cc3c2F)S(=O)(=O)N1` [Compound 384, 5-{7-[2-(1,3-dihydro-2H-isoindol-2-yl)ethoxy]-1-fluoro-3-hydroxynaphthalen-2-yl}-1λ^6,2,5-thiadiazolidine-1,1,3-trione] showed an IC50 of 1 to 10 nM. `O=C1CN(c2c(O)cc3ccc(OCCN4CC(F)(F)C4)cc3c2F)S(=O)(=O)N1` [Compound 385, 5-{7-[2-(3,3-difluoroazetidin-1-yl)ethoxy]-1-fluoro-3-hydroxynaphthalen-2-yl}-1λ^6,2,5-thiadiazolidine-1,1,3-trione] gave an IC50 of 1 to 10 nM. Compound `CC1(CCOc2cc3c(F)c(N4CC(=O)NS4(=O)=O)c(O)cc3cc2O)CC1` [Compound 386, 5-{1-fluoro-3,6-dihydroxy-7-[2-(1-methylcyclopropyl)ethoxy]naphthalen-2-yl}-1λ^6,2,5-thiadiazolidine-1,1,3-trione] has an IC50 of under 1 nM. `C[C@](O)(CO)CCOc1cc2c(F)c(N3CC(=O)NS3(=O)=O)c(O)cc2cc1O` [Compound 387, 5-{7-[(3R)-3,4-dihydroxy-3-methylbutoxy]-1-fluoro-3,6-dihydroxynaphthalen-2-yl}-1λ^6,2,5-thiadiazolidine-1,1,3-trione] gave an IC50 of under 1 nM. `CCN(C)CCOc1ccc2cc(O)c(N3CC(=O)NS3(=O)=O)c(F)c2c1` [Compound 388, 5-(7-{2-[ethyl(methyl)amino]ethoxy}-1-fluoro-3-hydroxynaphthalen-2-yl)-1λ^6,2,5-thiadiazolidine-1,1,3-trione] gave an IC50 of 1 to 10 nM. `CN(CCC#N)CCOc1ccc2cc(O)c(N3CC(=O)NS3(=O)=O)c(F)c2c1` [Compound 389, 3-[(2-{[8-fluoro-6-hydroxy-7-(1,1,4-trioxo-1λ^6,2,5-thiadiazolidin-2-yl)naphthalen-2-yl]oxy}ethyl)(methyl)amino]propanenitrile] was tested, and the IC50 was 1 to 10 nM. `O=C1CN(c2c(O)cc3ccc(OCCNCC(F)(F)F)cc3c2F)S(=O)(=O)N1` [Compound 390, 5-(1-fluoro-3-hydroxy-7-{2-[(2,2,2-trifluoroethyl)amino]ethoxy}naphthalen-2-yl)-1λ^6,2,5-thiadiazolidine-1,1,3-trione] was tested, and the IC50 was 1 to 10 nM.

What follows are compounds tested against T2, His tagged full-length PTP1B protein (Homo sapiens, UniProt P18031) (assay: Mobility Shift Assay (MSA) used to determine potency of PTP1B inhibitors). Conditions: Table 2.
T2 construct: made in house
T2 sequence (P18031 with tags, fused parts or gaps): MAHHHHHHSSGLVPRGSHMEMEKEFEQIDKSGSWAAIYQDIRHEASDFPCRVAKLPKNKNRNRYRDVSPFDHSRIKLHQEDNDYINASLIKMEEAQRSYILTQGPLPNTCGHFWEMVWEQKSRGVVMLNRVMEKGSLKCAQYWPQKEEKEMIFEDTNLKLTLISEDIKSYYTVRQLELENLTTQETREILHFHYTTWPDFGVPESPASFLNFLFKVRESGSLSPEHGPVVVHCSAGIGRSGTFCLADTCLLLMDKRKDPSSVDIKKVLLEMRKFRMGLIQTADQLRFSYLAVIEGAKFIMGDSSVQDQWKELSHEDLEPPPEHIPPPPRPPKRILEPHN
Assay type: biochemical
Experimental: The enzymatic assay used to determine activity is a mobility shift assay using a LabChip EZ Reader by Caliper Life Sciences. The enzymatic reaction was carried out in assay buffer (50 mM HEPES pH 7.5, 1 mM EGTA, 10 mM EDTA, 0.01% Tween® 20, and 2 mM DTT). […] The enzyme (at 0.5 nM) was incubated with compound for 10 minutes at room temperature. […] The % inhibition was then used to calculate the IC50 values.
Work on `C[C@@H](O)C[C@@H](O)COc1ccc2cc(O)c(N3CC(=O)NS3(=O)=O)c(F)c2c1` (racemic) [Compound 325, 5-(7-{[rac-(2R,4R)-2,4-dihydroxypentyl]oxy}-1-fluoro-3-hydroxynaphthalen-2-yl)-1λ^6,2,5-thiadiazolidine-1,1,3-trione] yielded an IC50 of 1 to 10 nM. `O=C1CN(c2c(O)cc3ccc(OCCNS(=O)(=O)C4CC4)cc3c2F)S(=O)(=O)N1` [Compound 127, N-(2-{[8-fluoro-6-hydroxy-7-(1,1,4-trioxo-1λ^6,2,5-thiadiazolidin-2-yl)naphthalen-2-yl]oxy}ethyl)cyclopropanesulfonamide] showed an IC50 of 1 to 10 nM. In the case of `N#CCC1(COc2ccc3cc(O)c(N4CC(=O)NS4(=O)=O)c(F)c3c2)CC1` [Compound 130, [1-({[8-fluoro-6-hydroxy-7-(1,1,4-trioxo-1λ^6,2,5-thiadiazolidin-2-yl)naphthalen-2-yl]oxy}methyl)cyclopropyl]acetonitrile], the IC50 is reported as 1 to 10 nM. In the case of `N#CC1(COc2ccc3cc(O)c(N4CC(=O)NS4(=O)=O)c(F)c3c2)CC1` [Compound 199, 1-({[8-fluoro-6-hydroxy-7-(1,1,4-trioxo-1λ^6,2,5-thiadiazolidin-2-yl)naphthalen-2-yl]oxy}methyl)cyclopropane-1-carbonitrile], the IC50 is reported as over 100 nM.
